Source: patent US8980907B2, “Dendrimer conjugates” (The Regents of the University of Michigan, priority 2008, dated 2015)

Assays:
Male Hartley guinea pigs = assay: Randall & Selitto paw pressure analgesia test in guinea pig; format: in vivo; details: pain threshold at 60, 150, 240 and 360 min after administration
From the text: Male Hartley guinea pigs (375-475 g) from Elm Hill labs were allowed free access to food and water before being used in the testing of analgesia effects free morphine, morphine complex, and morphine prodrug A complex
The Randall & Selitto test apparatus (Harvard Instruments) is used to measure analgesia and is based on determination of the animal threshold response to pain induced in the paw by the application of a uniformly increasing pressure from a conical tip upon the dorsal surface of the rear paw which rests on a platform. The weight in grams is taken upon withdrawal of the animals paw from the platform with five repeated measurements of pain threshold recorded for each time point (control, 60, 150, 240, and 360 min) after drug administration. Values are normalized to control and the mean±SEM for each time point are recorded. To reduce tissue damage to the animal a weight limit is used for all animals.

porcine liver esterase = assay: In vitro release of morphine from pro-drug with porcine liver esterase (HPLC); format: in vitro ADME; details: 20 μM, porcine liver esterase 0.01 U, phosphate buffer pH 7.0, 2 and 16 hours
Procedure: [drawing 26] was incubated with porcine liver esterase (Sigma, 0.01 U) in 20 mM phosphate buffer pH 7.0 for 2 and 16 hours. At the end of the time periods the samples were frozen at −20° C. and were thawed prior to loading onto the HPLC column.

solid tumors = details: cited from earlier work

Compound | analgesia / release of morphine in vivo (Male Hartley guinea pigs) | release of morphine from pro-drug (porcine liver esterase) | in vivo activity in solid tumor models (solid tumors)
CN1CC[C@]23c4c5ccc(OC(=O)CCC(=O)OC(C)(C)C)c4O[C@H]2[C@@H](O)C=C[C@H]3[C@H]1C5 [Pro-drug A] | sustained release of morphine | sustained release of morphine | –
N.N.[Cl][Pt][Cl] [cisplatin] | – | – | no effect
